Assay results reported in patent US20150105252A1, “SUBSTITUTED PYRAZOLES AS HERBICIDES” (E I DU PONT DE NEMOURS AND COMPANY, priority 2013, published 2015).

Columns and labels:
crabgrass, Brazil = assay: Test F preemergence; format: in vivo, Digitaria horizontalis
Outline: (§1)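 Greenhouse study; evaluation window 14–21 days post-treatment. Seedlings sprayed postemergence measured 2–18 cm, while preemergence treatments went on silt loam soil. Non-phytotoxic solvent mixture with surfactant served as vehicle; response assessed by eye, 0–100 scale.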

fall panicum = assay: Test F preemergence; format: in vivo, Panicum dichotomiflorum
Outline: as §1

Italian ryegrass = assay: Test F preemergence; format: in vivo, Lolium multiflorum
Outline: as §1

foxtail, green = assay: Test D preemergence; format: in vivo, Setaria viridis; details: scale 0 to 100
Excerpt: (§2) Seeds of plant species selected from bluegrass (annual bluegrass, Poa annua), blackgrass (Alopecurus myosuroides), canarygrass (littleseed canarygrass, Phalaris minor), chickweed (common chickweed, Stellaria media), galium (catchweed bedstraw, Galium aparine), bromegrass, downy (downy bromegrass, Bromus tectorum), field poppy (Papaver rhoeas), field violet (Viola arvensis), foxtail, green (green foxtail, Setaria viridis), deadnettle (henbit deadnettle, Lamium amplexicaule), ryegrass, Italian (Italian ryegrass, Lolium multiflorum), kochia (Kochia scoparia), lambsquarters (Chenopodium album), oilseed rape (Brassica napus), pigweed (redroot pigweed, Amaranthus retroflexus), chamomile (scentless chamomile, Matricaria inodora), speedwell (bird's-eye speedwell, Veronica persica), barley, spring (spring barley, Hordeum vulgare), wheat, spring (spring wheat, Triticum aestivum), buckwheat, wild (wild buckwheat, Polygonum convolvulus), mustard, wild (wild mustard, Sinapis arvensis), oat, wild (wild oat, Avena fatua), radish, wild (wild radish, Raphanus raphanistrum), windgrass (Apera spica-venti), Russian thistle (Salsola kali), barley, winter (winter barley, Hordeum vulgare), and wheat, winter (winter wheat, Triticum aestivum) were planted into a silt loam soil and treated preemergence with test chemicals formulated in a non-phytotoxic solvent mixture which included a surfactant.
(§3) At the same time, these species were planted in pots containing Redi-Earth® planting medium (Scotts Company, 14111 Scottslawn Road, Marysville, Ohio 43041) comprising spaghnum peat moss, vermiculite, wetting agent and starter nutrients and treated with postemergence applications of the test chemicals formulated in the same manner. Plants ranged in height from 2 to 18 cm (1- to 4-leaf stage). Treated plants and controls were maintained in a controlled growth environment for 14 to 21 days after which time all species were compared to controls and visually evaluated. Plant response ratings, summarized in Table D, are based on a scale of 0 to 100 where 0 is no effect and 100 is complete control. A dash (-) response means no test result.

pigweed, palmer = assay: Test F preemergence; format: in vivo, Amaranthus palmeri
Outline: as §1

canarygrass = assay: Test D postemergence; format: in vivo, Phalaris minor; details: scale 0 to 100
Excerpt: as §2, §3

galium = assay: Test D preemergence; format: in vivo, Galium aparine; details: scale 0 to 100
Outline: (§4)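 Whole-plant herbicidal activity; pre- and postemergence sprays. Soil: silt loam (pre); peat/vermiculite medium (post, 1–4 leaf). Assessment: 14–21 days, visual, 0 = no effect, 100 = complete control.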

field violet = assay: Test D preemergence; format: in vivo, Viola arvensis; details: scale 0 to 100
Outline: as §4

corn = assay: Test F preemergence; format: in vivo, Zea mays
Outline: as §1

goosegrass = assay: Test F preemergence; format: in vivo, Eleusine indica
Outline: as §1

johnsongrass = assay: Test F preemergence; format: in vivo, Sorghum halepense
Outline: as §1

mustard, wild = assay: Test D postemergence; format: in vivo, Sinapis arvensis; details: scale 0 to 100
Outline: as §4

chickweed = assay: Test D preemergence; format: in vivo, Stellaria media; details: scale 0 to 100
Outline: as §4

pigweed = assay: Test D postemergence; format: in vivo, Amaranthus retroflexus; details: scale 0 to 100
Excerpt: as §2, §3

[1] = Preemergence, 31 g ai/ha, scale 0 to 100
[2] = Preemergence, 62 g ai/ha, scale 0 to 100
[3] = Preemergence, 125 g ai/ha, scale 0 to 100
[4] = preemergence, 8 g ai/ha, scale 0 to 100, 100 is complete control
[5] = preemergence, 16 g ai/ha, scale 0 to 100, 100 is complete control
[6] = Preemergence, 16 g ai/ha, scale 0 to 100

SMILES: CCCc1cc(C(=O)NCC(F)(F)F)nn1Cc1ccnc(C(F)(F)F)c1 [Compound 105]
- Plant response rating, Crabgrass, Brazil (crabgrass, Brazil; [1]): 98
- Plant response rating, Crabgrass, Brazil (crabgrass, Brazil; [2]): 100
- Plant response rating, Crabgrass, Brazil (crabgrass, Brazil; [3]): 100
- Plant response rating, Crabgrass, Brazil (crabgrass, Brazil; [4]): 5
- Plant response rating, Crabgrass, Brazil (crabgrass, Brazil; [5]): 40
- Plant response rating, Fall Panicum (fall panicum; [1]): 100
- Plant response rating, Fall Panicum (fall panicum; [2]): 100
- Plant response rating, Fall Panicum (fall panicum; [3]): 100
- Plant response rating, Fall Panicum (fall panicum; [4]): 75
- Plant response rating, Fall Panicum (fall panicum; [5]): 80
- Plant response rating, Italian Ryegrass (Italian ryegrass; [1]): 50
- Plant response rating, Italian Ryegrass (Italian ryegrass; [2]): 60
- Plant response rating, Italian Ryegrass (Italian ryegrass; [3]): 80
- Plant response rating, Italian Ryegrass (Italian ryegrass; [4]): 0
- Plant response rating, Italian Ryegrass (Italian ryegrass; [5]): 0
- Plant response rating, Foxtail, Green (foxtail, green; 31 g ai/ha): 45
- Plant response rating, Foxtail, Green (foxtail, green; 62 g ai/ha): 100
- Plant response rating, Foxtail, Green (foxtail, green; 125 g ai/ha): 100
- Plant response rating, Foxtail, Green (foxtail, green; 250 g ai/ha): 100
- Plant response rating, Pigweed, Palmer (pigweed, palmer; [2]): 50
- Plant response rating, Pigweed, Palmer (pigweed, palmer; [3]): 80
- Plant response rating, Pigweed, Palmer (pigweed, palmer; [4]): 0
- Plant response rating, Pigweed, Palmer (pigweed, palmer; [5]): 0
- Canarygrass plant response rating (canarygrass; Postemergence, 31 g ai/ha): 10
- Canarygrass plant response rating (canarygrass; Postemergence, 125 g ai/ha): 25
- Canarygrass plant response rating (canarygrass; Postemergence, 250 g ai/ha): 40
- Canarygrass plant response rating (canarygrass; postemergence, 62 g ai/ha): 15
- Plant response rating, Galium (galium; 31 g ai/ha): 100
- Plant response rating, Galium (galium; 62 g ai/ha): 100
- Plant response rating, Galium (galium; 125 g ai/ha): 100
- Plant response rating, Galium (galium; 250 g ai/ha): 100
- Plant response rating, Field Violet (field violet; 31 g ai/ha): 100
- Plant response rating, Field Violet (field violet; 62 g ai/ha): 100
- Plant response rating, Field Violet (field violet; 125 g ai/ha): 100
- Plant response rating, Field Violet (field violet; 250 g ai/ha): 100
- Plant response rating, Corn (corn; [1]): 40
- Plant response rating, Corn (corn; [2]): 40
- Plant response rating, Corn (corn; [3]): 60
- Plant response rating, Corn (corn; [4]): 20
- Plant response rating, Corn (corn; [5]): 30
- Plant response rating, Goosegrass (goosegrass; [1]): 40
- Plant response rating, Goosegrass (goosegrass; [2]): 90
- Plant response rating, Goosegrass (goosegrass; [3]): 98
- Plant response rating, Goosegrass (goosegrass; [4]): 30
- Plant response rating, Goosegrass (goosegrass; [5]): 35
- Plant response rating, Johnsongrass (johnsongrass; [1]): 75
- Plant response rating, Johnsongrass (johnsongrass; [2]): 98
- Plant response rating, Johnsongrass (johnsongrass; [3]): 98
- Plant response rating, Johnsongrass (johnsongrass; [4]): 0
- Plant response rating, Johnsongrass (johnsongrass; [5]): 25
- Mustard, Wild plant response rating (mustard, wild; Postemergence, 31 g ai/ha): 70
- Mustard, Wild plant response rating (mustard, wild; Postemergence, 125 g ai/ha): 85
- Mustard, Wild plant response rating (mustard, wild; Postemergence, 250 g ai/ha): 90
- Mustard, Wild plant response rating (mustard, wild; postemergence, 62 g ai/ha): 60
- Plant response rating, Chickweed (chickweed; 31 g ai/ha): 95
- Plant response rating, Chickweed (chickweed; 62 g ai/ha): 100
- Plant response rating, Chickweed (chickweed; 125 g ai/ha): 100
- Plant response rating, Chickweed (chickweed; 250 g ai/ha): 100
- Pigweed plant response rating (pigweed; Postemergence, 31 g ai/ha): 85
- Pigweed plant response rating (pigweed; Postemergence, 125 g ai/ha): 80
- Pigweed plant response rating (pigweed; Postemergence, 250 g ai/ha): 85
- Pigweed plant response rating (pigweed; postemergence, 62 g ai/ha): 75

SMILES: CCOc1cc(C(=O)NC(C)C)nn1Cc1ccnc(C(F)(F)F)c1 [Compound 188]
- Plant response rating, Crabgrass, Brazil (crabgrass, Brazil; [6]): 100
- Plant response rating, Crabgrass, Brazil (crabgrass, Brazil; [2]): 100
- Plant response rating, Crabgrass, Brazil (crabgrass, Brazil; [3]): 100
- Plant response rating, Crabgrass, Brazil (crabgrass, Brazil; [4]): 35
- Plant response rating, Fall Panicum (fall panicum; [6]): 100
- Plant response rating, Fall Panicum (fall panicum; [2]): 100
- Plant response rating, Fall Panicum (fall panicum; [3]): 100
- Plant response rating, Fall Panicum (fall panicum; [4]): 75
- Plant response rating, Italian Ryegrass (Italian ryegrass; [2]): 70
- Plant response rating, Italian Ryegrass (Italian ryegrass; [3]): 80
- Plant response rating, Italian Ryegrass (Italian ryegrass; [4]): 0
- Plant response rating, Foxtail, Green (foxtail, green; 62 g ai/ha): 100
- Plant response rating, Foxtail, Green (foxtail, green; 125 g ai/ha): 100
- Plant response rating, Foxtail, Green (foxtail, green; 250 g ai/ha): 100
- Plant response rating, Pigweed, Palmer (pigweed, palmer; [3]): 50
- Plant response rating, Pigweed, Palmer (pigweed, palmer; [4]): 0
- Canarygrass plant response rating (canarygrass; Postemergence, 31 g ai/ha): 15
- Canarygrass plant response rating (canarygrass; Postemergence, 125 g ai/ha): 20
- Canarygrass plant response rating (canarygrass; Postemergence, 250 g ai/ha): 35
- Canarygrass plant response rating (canarygrass; postemergence, 62 g ai/ha): 15
- Plant response rating, Galium (galium; 62 g ai/ha): 95
- Plant response rating, Galium (galium; 125 g ai/ha): 100
- Plant response rating, Galium (galium; 250 g ai/ha): 100
- Plant response rating, Field Violet (field violet; 62 g ai/ha): 100
- Plant response rating, Field Violet (field violet; 125 g ai/ha): 100
- Plant response rating, Field Violet (field violet; 250 g ai/ha): 100
- Plant response rating, Corn (corn; [2]): 15
- Plant response rating, Corn (corn; [3]): 65
- Plant response rating, Corn (corn; [4]): 20
- Plant response rating, Goosegrass (goosegrass; [2]): 98
- Plant response rating, Goosegrass (goosegrass; [3]): 100
- Plant response rating, Goosegrass (goosegrass; [4]): 5
- Plant response rating, Johnsongrass (johnsongrass; [2]): 80
- Plant response rating, Johnsongrass (johnsongrass; [3]): 95
- Plant response rating, Johnsongrass (johnsongrass; [4]): 0
- Mustard, Wild plant response rating (mustard, wild; Postemergence, 31 g ai/ha): 50
- Mustard, Wild plant response rating (mustard, wild; Postemergence, 125 g ai/ha): 60
- Mustard, Wild plant response rating (mustard, wild; Postemergence, 250 g ai/ha): 85
- Mustard, Wild plant response rating (mustard, wild; postemergence, 62 g ai/ha): 50
- Plant response rating, Chickweed (chickweed; 31 g ai/ha): 100
- Plant response rating, Chickweed (chickweed; 62 g ai/ha): 100
- Plant response rating, Chickweed (chickweed; 125 g ai/ha): 100
- Plant response rating, Chickweed (chickweed; 250 g ai/ha): 100
- Pigweed plant response rating (pigweed; Postemergence, 31 g ai/ha): 40
- Pigweed plant response rating (pigweed; Postemergence, 125 g ai/ha): 60
- Pigweed plant response rating (pigweed; Postemergence, 250 g ai/ha): 80
- Pigweed plant response rating (pigweed; postemergence, 62 g ai/ha): 40
